Consider 2 compounds from ChEMBL document CHEMBL4387741, “Optimization of novel reversible Bruton's tyrosine kinase inhibitors identified using Tethering-fragment-based screens” (Bioorg Med Chem, 2019).

Test [1] concerns Tyrosine-protein kinase ABL1 (Homo sapiens), P00519 [Q252H]. As to the kind of experiment: Inhibition of human phosphorylated ABL1 Q252H mutant expressed in mammalian expression system at 10 uM by Kinomescan method relative to control.
Test [2] concerns the target Receptor tyrosine-protein kinase erbB-2 (Homo sapiens) (UniProt P04626). The test is described as follows: Inhibition of wild-type human partial length ERBB2 (K646 to V1225 residues) expressed in mammalian expression system at 10 uM by Kinomescan method relative to control.
Test [3] concerns the target Tyrosine-protein kinase Tec (Homo sapiens) (UniProt P42680). The test is described as follows: Inhibition of wild-type human partial length TEC (L341 to D620 residues) expressed in bacterial expression system at 10 uM by Kinomescan method relative to control.
For test [4], the system named is Mast/stem cell growth factor receptor Kit (Homo sapiens), P10721 [V559D,T670I]. As to the kind of experiment: Inhibition of human partial length KIT V559D/T670I double mutant (Y545 to D952 residues) expressed in bacterial expression system at 10 uM by Kinomescan method relative to control.
Mast/stem cell growth factor receptor Kit (Homo sapiens), P10721 [V559D,T670I], sequence (P10721 whole entry V559D/T670I, the tested form may be a part): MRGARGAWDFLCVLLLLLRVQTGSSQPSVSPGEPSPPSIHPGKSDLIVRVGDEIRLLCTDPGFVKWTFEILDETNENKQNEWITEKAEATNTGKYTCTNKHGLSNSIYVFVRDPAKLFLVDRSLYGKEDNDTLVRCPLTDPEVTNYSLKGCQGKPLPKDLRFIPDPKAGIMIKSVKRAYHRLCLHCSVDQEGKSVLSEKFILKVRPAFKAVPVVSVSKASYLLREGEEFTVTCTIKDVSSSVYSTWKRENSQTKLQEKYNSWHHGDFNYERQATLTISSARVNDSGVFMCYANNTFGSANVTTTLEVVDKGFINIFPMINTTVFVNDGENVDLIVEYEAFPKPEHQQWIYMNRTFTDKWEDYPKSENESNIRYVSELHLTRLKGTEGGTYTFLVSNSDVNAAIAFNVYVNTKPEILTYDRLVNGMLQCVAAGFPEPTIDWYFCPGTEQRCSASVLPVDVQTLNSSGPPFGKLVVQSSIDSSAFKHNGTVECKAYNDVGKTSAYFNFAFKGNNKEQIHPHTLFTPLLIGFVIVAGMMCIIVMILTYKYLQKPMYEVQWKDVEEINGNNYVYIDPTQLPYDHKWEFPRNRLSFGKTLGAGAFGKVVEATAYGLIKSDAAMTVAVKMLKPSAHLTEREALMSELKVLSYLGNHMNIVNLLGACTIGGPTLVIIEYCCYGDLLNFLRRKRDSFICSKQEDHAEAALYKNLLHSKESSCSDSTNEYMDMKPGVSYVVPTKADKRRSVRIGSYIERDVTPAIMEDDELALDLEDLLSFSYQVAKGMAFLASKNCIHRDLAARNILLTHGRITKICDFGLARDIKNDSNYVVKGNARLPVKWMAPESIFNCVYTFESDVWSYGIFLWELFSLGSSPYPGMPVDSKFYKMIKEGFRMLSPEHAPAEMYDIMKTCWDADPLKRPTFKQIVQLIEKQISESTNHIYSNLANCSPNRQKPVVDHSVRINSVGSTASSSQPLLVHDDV
Test [5] concerns the target Ephrin type-A receptor 8 (Homo sapiens) (UniProt P29322). The test is described as follows: Inhibition of wild-type human partial length EPHA8 (Q608 to C920 residues) expressed in bacterial expression system at 10 uM by Kinomescan method relative to control.
Test [6] concerns the target Serine/threonine-protein kinase Nek4 (Homo sapiens) (UniProt P51957). The test is described as follows: Inhibition of wild-type human full length NEK4 (M1 to F841 residues) expressed in mammalian expression system at 10 uM by Kinomescan method relative to control.
The target in test [7] is Dual specificity mitogen-activated protein kinase kinase 2 (Homo sapiens) (UniProt P36507). As to the kind of experiment: Inhibition of wild-type human full length MEK2 (M1 to V400 residues) expressed in mammalian expression system at 10 uM by Kinomescan method relative to control.
Dual specificity mitogen-activated protein kinase kinase 2 (Homo sapiens), sequence (P36507 whole entry, the tested form may be a part): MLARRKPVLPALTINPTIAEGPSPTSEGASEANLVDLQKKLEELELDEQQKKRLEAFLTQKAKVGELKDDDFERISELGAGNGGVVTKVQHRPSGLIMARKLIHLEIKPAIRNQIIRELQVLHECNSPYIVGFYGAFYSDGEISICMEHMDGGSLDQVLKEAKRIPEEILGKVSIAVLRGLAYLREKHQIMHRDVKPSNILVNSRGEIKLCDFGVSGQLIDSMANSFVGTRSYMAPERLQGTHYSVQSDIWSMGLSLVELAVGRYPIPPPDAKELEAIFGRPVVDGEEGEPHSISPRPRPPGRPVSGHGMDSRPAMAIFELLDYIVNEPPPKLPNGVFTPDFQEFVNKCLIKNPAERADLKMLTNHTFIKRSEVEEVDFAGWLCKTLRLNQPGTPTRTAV
Test [8] concerns the target Calcium/calmodulin-dependent protein kinase kinase 1 (Homo sapiens) (UniProt Q8N5S9). As to the kind of experiment: Inhibition of wild-type human partial length CAMKK1 (R65 to E414 residues) expressed in bacterial expression system at 10 uM by Kinomescan method relative to control.
In test [9] the target is Serine/threonine-protein kinase tousled-like 1 (Homo sapiens) (UniProt Q9UKI8). The test is described as follows: Inhibition of wild-type human partial length TLK1 (K447 to A754 residues) expressed in bacterial expression system at 10 uM by Kinomescan method relative to control.
Test [10] addresses Tyrosine-protein kinase HCK (Homo sapiens) (UniProt P08631). The test is described as follows: Inhibition of wild-type human full length HCK (M22 to P526 residues) expressed in bacterial expression system at 10 uM by Kinomescan method relative to control.
Test [11] deals with Serine/threonine-protein kinase PRP4 homolog (Homo sapiens) (UniProt Q13523). The test is described as follows: Inhibition of wild-type human partial length PRP4 (D657 to I1007 residues) expressed in bacterial expression system at 10 uM by Kinomescan method relative to control.
In test [12] the target is Mitogen-activated protein kinase kinase kinase 5 (Homo sapiens) (UniProt Q99683). The test is described as follows: Inhibition of wild-type human partial length ASK1 (E648 to S964 residues) expressed in bacterial expression system at 10 uM by Kinomescan method relative to control.
In test [13] the target is Serine/threonine-protein kinase Nek9 (Homo sapiens) (UniProt Q8TD19). The test is described as follows: Inhibition of wild-type human partial length NEK9 (P32 to R328 residues) expressed in bacterial expression system at 1 uM by Kinomescan method relative to control.
Test [14] deals with Hepatocyte growth factor receptor (Homo sapiens), P08581 [M1250T]. The test is described as follows: Inhibition of human partial length MET M1250T mutant (D1010 to S1367 residues) expressed in bacterial expression system at 1 uM by Kinomescan method relative to control.
Hepatocyte growth factor receptor (Homo sapiens), P08581 [M1250T], sequence (P08581 whole entry M1250T, the tested form may be a part): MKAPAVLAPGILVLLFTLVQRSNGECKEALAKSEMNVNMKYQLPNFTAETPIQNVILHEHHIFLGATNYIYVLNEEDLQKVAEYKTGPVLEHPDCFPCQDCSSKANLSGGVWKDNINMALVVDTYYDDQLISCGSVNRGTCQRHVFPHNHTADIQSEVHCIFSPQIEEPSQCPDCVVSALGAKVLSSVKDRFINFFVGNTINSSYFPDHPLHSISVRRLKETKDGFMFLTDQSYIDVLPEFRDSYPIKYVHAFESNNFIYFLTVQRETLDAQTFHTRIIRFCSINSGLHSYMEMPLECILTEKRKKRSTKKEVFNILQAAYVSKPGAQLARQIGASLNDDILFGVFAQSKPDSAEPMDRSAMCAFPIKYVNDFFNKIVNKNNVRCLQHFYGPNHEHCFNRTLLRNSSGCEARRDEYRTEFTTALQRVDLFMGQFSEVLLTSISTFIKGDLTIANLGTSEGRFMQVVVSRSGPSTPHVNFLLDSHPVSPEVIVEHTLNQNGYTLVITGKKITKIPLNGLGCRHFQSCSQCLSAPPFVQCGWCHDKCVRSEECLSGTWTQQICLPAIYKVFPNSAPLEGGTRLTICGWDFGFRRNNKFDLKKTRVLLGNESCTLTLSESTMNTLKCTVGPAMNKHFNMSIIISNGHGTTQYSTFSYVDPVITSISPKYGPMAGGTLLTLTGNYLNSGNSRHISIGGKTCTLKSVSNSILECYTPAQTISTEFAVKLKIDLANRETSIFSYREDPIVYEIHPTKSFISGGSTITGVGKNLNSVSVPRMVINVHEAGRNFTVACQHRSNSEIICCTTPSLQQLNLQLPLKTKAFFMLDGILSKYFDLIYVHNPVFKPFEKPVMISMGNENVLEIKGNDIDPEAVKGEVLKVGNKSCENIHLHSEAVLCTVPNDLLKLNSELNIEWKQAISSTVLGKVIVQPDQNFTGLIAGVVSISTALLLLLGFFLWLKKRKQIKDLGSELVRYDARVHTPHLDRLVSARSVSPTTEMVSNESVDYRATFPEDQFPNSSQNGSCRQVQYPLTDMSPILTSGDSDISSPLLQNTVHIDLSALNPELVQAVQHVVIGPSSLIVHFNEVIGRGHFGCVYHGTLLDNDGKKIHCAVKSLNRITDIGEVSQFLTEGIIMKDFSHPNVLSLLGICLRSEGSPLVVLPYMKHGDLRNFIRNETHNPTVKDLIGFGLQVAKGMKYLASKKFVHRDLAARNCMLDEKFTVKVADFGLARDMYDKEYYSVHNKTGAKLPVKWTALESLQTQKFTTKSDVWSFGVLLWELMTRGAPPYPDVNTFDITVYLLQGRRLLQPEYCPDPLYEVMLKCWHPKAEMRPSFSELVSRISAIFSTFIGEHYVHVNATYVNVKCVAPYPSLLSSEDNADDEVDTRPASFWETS
For test [15], the target named is Platelet-derived growth factor receptor alpha (Homo sapiens) (UniProt P16234). As to the kind of experiment: Inhibition of wild-type human partial length PDGFRA (V575 to D1002 residues) expressed in mammalian expression system at 1 uM by Kinomescan method relative to control.
The target of test [16] is Inhibitor of nuclear factor kappa-B kinase subunit epsilon (Homo sapiens) (UniProt Q14164). The test is described as follows: Inhibition of wild-type human full length IKK-epsilon (M1 to V716 residues) expressed in mammalian expression system at 1 uM by Kinomescan method relative to control.
In test [17] the target is Atypical kinase COQ8B, mitochondrial (Homo sapiens) (UniProt Q96D53). As to the kind of experiment: Inhibition of wild-type human full length ADCK4 (M1 to S544 residues) expressed in bacterial expression system at 1 uM by Kinomescan method relative to control.
In test [18] the target is SRSF protein kinase 1 (Homo sapiens) (UniProt Q96SB4). As to the kind of experiment: Inhibition of wild-type human full length SRPK1 (M1 to S655 residues) expressed in bacterial expression system at 1 uM by Kinomescan method relative to control.
Test [19] addresses Mitogen-activated protein kinase 14 (Homo sapiens) (UniProt Q16539). As to the kind of experiment: Inhibition of wild-type human full length p38-alpha (M1 to S360 residues) expressed in bacterial expression system at 1 uM by Kinomescan method relative to control.
For test [20], the target named is G protein-coupled receptor kinase 4 (Homo sapiens) (UniProt P32298). The test is described as follows: Inhibition of wild-type human full length GRK4 (M1 to C578 residues) expressed in bacterial expression system at 1 uM by Kinomescan method relative to control.
G protein-coupled receptor kinase 4 (Homo sapiens), sequence (P32298 whole entry, looked up, the tested form may be a part): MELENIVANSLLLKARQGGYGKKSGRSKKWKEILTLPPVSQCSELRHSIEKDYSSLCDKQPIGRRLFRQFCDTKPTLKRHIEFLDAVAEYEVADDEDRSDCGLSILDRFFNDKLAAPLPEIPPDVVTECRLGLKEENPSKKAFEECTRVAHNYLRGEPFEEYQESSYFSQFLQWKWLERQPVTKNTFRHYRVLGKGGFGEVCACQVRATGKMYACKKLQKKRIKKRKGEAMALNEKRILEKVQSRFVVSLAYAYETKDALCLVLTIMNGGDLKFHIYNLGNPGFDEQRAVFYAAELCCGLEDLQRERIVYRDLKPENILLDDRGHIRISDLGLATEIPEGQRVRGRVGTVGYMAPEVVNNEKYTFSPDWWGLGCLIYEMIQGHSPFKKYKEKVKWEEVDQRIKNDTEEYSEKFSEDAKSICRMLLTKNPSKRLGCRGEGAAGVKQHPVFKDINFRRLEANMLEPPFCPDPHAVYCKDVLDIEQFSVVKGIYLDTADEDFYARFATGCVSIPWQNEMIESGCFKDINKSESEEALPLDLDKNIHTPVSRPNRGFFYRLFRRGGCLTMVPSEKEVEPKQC
Test [21] deals with Non-receptor tyrosine-protein kinase TNK1 (Homo sapiens) (UniProt Q13470). As to the kind of experiment: Inhibition of wild-type human full length TNK1 (M1 to P661 residues) expressed in bacterial expression system at 1 uM by Kinomescan method relative to control.
Non-receptor tyrosine-protein kinase TNK1 (Homo sapiens), sequence (Q13470 whole entry, the tested form may be a part, canonical isoform): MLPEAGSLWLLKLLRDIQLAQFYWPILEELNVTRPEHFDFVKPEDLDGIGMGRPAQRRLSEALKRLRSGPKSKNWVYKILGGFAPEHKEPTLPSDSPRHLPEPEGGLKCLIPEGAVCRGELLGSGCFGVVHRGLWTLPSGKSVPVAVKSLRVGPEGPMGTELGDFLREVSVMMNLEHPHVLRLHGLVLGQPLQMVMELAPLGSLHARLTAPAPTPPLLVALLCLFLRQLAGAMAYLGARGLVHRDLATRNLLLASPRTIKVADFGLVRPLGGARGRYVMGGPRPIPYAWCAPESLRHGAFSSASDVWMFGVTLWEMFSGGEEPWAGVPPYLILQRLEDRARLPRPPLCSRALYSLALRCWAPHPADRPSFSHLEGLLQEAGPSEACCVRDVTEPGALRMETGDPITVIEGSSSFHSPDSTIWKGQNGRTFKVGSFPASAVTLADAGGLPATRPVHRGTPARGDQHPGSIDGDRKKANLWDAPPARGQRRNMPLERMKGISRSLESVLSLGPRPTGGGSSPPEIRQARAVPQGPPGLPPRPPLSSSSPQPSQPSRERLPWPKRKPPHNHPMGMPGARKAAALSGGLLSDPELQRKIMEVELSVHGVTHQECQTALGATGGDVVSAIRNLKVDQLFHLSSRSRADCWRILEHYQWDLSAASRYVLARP
Test [22] has as its system Phosphatidylinositol 4,5-bisphosphate 3-kinase catalytic subunit alpha isoform (Homo sapiens), P42336 [I800L]. As to the kind of experiment: Inhibition of human partial length PIK3CA I800L mutant (R108 to N1068 residues) expressed in mammalian expression system at 1 uM by Kinomescan method relative to control.
The target in test [23] is Misshapen-like kinase 1 (Homo sapiens) (UniProt Q8N4C8). As to the kind of experiment: Inhibition of wild-type human partial length MINK (M1 to K312 residues) expressed in mammalian expression system at 1 uM by Kinomescan method relative to control.
Test [24] has as its target Testis-specific serine/threonine-protein kinase 1 (Homo sapiens) (UniProt Q9BXA7). As to the kind of experiment: Inhibition of wild-type human full length TSSK1B (M1 to Q367 residues) expressed in bacterial expression system at 1 uM by Kinomescan method relative to control.
Test [25] has as its system Phosphatidylinositol 4,5-bisphosphate 3-kinase catalytic subunit alpha isoform (Homo sapiens), P42336 [H1047Y]. As to the kind of experiment: Inhibition of human partial length PIK3CA H1047Y mutant (R108 to N1068 residues) expressed in mammalian expression system at 1 uM by Kinomescan method relative to control.
Test [26] concerns the target Cyclin-dependent kinase 9 (Homo sapiens) (UniProt P50750). As to the kind of experiment: Inhibition of wild-type human full length CDK9 (M1 to F372 residues) expressed in bacterial expression system at 1 uM by Kinomescan method relative to control.
Test [27] deals with Serine/threonine-protein kinase Nek1 (Homo sapiens) (UniProt Q96PY6). The test is described as follows: Inhibition of wild-type human partial length NEK1 (M1 to K278 residues) expressed in bacterial expression system at 1 uM by Kinomescan method relative to control.

Serine/threonine-protein kinase Nek4 (Homo sapiens), sequence (P51957 whole entry, looked up, the tested form may be a part): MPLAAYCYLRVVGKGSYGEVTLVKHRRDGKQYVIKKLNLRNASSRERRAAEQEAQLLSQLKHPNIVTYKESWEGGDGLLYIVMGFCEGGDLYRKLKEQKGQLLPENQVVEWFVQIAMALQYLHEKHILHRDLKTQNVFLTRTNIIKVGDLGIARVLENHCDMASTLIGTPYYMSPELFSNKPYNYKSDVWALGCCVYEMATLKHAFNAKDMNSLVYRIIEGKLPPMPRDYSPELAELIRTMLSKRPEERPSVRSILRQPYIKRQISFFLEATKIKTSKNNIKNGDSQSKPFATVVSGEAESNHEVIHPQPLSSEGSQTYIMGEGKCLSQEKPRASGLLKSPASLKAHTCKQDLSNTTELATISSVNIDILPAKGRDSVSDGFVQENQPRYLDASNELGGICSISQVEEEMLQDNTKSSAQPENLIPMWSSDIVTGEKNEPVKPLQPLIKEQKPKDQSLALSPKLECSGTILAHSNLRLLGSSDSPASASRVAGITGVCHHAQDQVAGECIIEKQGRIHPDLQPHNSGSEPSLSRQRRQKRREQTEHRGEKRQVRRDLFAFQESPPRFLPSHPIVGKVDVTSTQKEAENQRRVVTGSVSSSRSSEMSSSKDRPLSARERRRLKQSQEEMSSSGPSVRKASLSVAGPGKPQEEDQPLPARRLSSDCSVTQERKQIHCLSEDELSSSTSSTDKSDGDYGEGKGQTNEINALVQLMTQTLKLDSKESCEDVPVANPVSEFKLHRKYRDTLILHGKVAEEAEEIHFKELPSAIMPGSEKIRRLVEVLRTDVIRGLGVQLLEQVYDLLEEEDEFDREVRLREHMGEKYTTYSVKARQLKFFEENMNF

Usually inhibition stands for the percentage by which the read-out fell short of the control. For the compound `O=C(Nc1cccc([C@H]2CCCN(c3ncnc4[nH]ccc34)C2)c1)Nc1ccccc1N1CCCC1`, the inhibition was 83% in [1]; 55% in test [2]; 73% in test [3]; 0.3% in test [4]; 40% in test [5]; 87% in test [6]. The inhibition in [7] was determined as 17%; in test [8] it was 82%; in [9], 78%; in test [10], 98%; in [11], 17%; in test [12], 100%.

Regarding `O=C(Nc1cccc([C@@H]2CN(c3ncnc4[nH]ccc34)CCN2CCO)c1)Nc1c(F)cccc1N1CCCC1`, the inhibition in test [13] was 95%; in [14], 91%; in test [15] it was 85%; in test [16], 96%; in test [17], 92%; in test [18], 37%. Moreover, the inhibition in test [19] stood at 100%; in test [20] it was 66%; in [21] it was 65%; in test [22] it was 74%; in test [23], 69%; in test [24] it was 100%. Besides, the figures for the inhibition in test [25], in test [26] and in [27] were 53%, 100% and 100%, respectively.
